Read-outs that look alike come from different tables or passages of the source.
Legend:
[1] = target: T1, cloned human H3 receptor, stably expressed in SK-N-MC cells (Homo sapiens, UniProt Q9Y5N1); assay: H3 receptor binding (N-[3H]-α-methylhistamine displacement); conditions: SK-N-MC membranes, 0.8 nM N-[3H]-α-methylhistamine
T1 construct: expressed in transfected cells

[2] = target: T2, human H3 receptor (SK-N-MC cells) (Homo sapiens, UniProt Q9Y5N1); assay: Cyclic AMP accumulation (β-galactosidase reporter, Schild analysis vs histamine); format: cell-based
T2 construct: expressed in transfected cells; host or cells: SK-N-MC sublines with CRE-beta-galactosidase reporter
T2 sequence (Q9Y5N1 whole entry): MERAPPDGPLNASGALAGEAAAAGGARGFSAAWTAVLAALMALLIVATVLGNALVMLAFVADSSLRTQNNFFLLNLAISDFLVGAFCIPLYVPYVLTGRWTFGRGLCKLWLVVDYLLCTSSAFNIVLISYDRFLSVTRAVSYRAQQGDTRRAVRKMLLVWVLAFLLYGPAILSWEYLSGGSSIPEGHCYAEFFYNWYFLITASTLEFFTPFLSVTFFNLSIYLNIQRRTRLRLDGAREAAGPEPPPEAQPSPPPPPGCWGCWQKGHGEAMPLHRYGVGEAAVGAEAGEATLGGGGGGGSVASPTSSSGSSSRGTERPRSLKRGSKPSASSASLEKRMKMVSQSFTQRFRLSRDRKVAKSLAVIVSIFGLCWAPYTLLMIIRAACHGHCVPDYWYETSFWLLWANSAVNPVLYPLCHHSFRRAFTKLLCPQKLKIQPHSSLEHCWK
Description: The reporter gene (β-galactosidase) is under the control of multiple cyclic AMP responsive elements. In 96-well plates, histamine was added directly to the cell media followed 5 min later by an addition of forskolin (5 μM final concentration). When appropriate, antagonists were added 10 min prior to agonist addition. After a 6-h incubation at 37° C., the media was aspirated and the cells washed with 200 μL of phosphate-buffered saline followed by a second aspiration. Cells were lysed with 25 μL 0.1× assay buffer (10 mM Na-phosphate, pH 8, 0.2 mM MgSO4, 0.01 mM MnCl2) and incubated at rt for 10 min. Cells were then incubated for 10 min with 100 μL of 1× assay buffer containing 0.5% Triton and 40 mM β-mercaptoethanol. Color was developed using 25 μL of 1 mg/mL substrate solution (chlorophenolred β-D galactopyranoside; Roche Molecular Biochemicals, Indianapolis, Ind.).

T1 sequence (Q9Y5N1 whole entry): as above

Structure (SMILES)	Ki [1]	Kb ([2]; read-out: H3 pA2 (converted))	Kb [2]
c1cnc([C@@H]2CN3CCC[C@H]3c3cc(OCCCN4CCOCC4)ccc32)cn1 (relative stereo) [Example 50A, Cis-9-(3-Morpholin-4-yl-propoxy)-6-pyrazin-2-yl-1,2,3,5,6,10b-hexahydro-pyrrolo[2,1-a]isoquinoline]	4 nM	–	–
Cc1ccc([C@@H]2CN3CCC[C@H]3c3cc(OCCCN4CCCCC4)ccc32)cc1 (relative stereo) [Example 5B, Trans-9-(3-Piperidine-1-yl-propoxy)-6-p-tolyl-1,2,3,5,6,10b-hexahydro-pyrrolo[2,1-a]isoquinoline]	1 nM	–	–
Fc1ccc([C@H]2CN3CCC[C@H]3c3cc(OCCCN4CCCCC4)ccc32)cc1 (relative stereo) [Example 14B, Trans-6-(4-Fluoro-phenyl)-9-(3-piperidin-1-yl-propoxy)-1,2,3,5,6,10b-hexahydro-pyrrolo[2,1-a]isoquinoline]	1 nM	0.794 nM	–
Clc1ccccc1[C@H]1CN2CCC[C@H]2c2cc(OCCCN3CCCCC3)ccc21 (relative stereo) [Example 12B, Trans-6-(2-Chloro-phenyl)-9-(3-piperidin-1-yl-propoxy)-1,2,3,5,6,10b-hexahydro-pyrrolo[2,1-a]isoquinoline]	1 nM	0.631 nM	–
c1cc([C@@H]2CN3CCC[C@H]3c3cc(OCCCN4CCCCC4)ccc32)ccn1 (relative stereo) [Example 27A, Cis-9-(3-Piperidin-1-yl-propoxy)-6-pyridin-4-yl-1,2,3,5,6,10b-hexahydro-pyrrolo[2,1-a]isoquinoline]	1 nM	–	–
Clc1ccccc1[C@H]1CN2CCC[C@H]2c2cccc(OCCCN3CCCCC3)c21 (relative stereo) [Example 12D, Trans-6-(2-Chloro-phenyl)-7-(3-piperidin-1-yl-propoxy)-1,2,3,5,6,10b-hexahydro-pyrrolo[2,1-a]isoquinoline]	74 nM	–	–
FC(F)(F)Sc1ccc([C@H]2CN3CCC[C@H]3c3cc(OCCCN4CCOCC4)ccc32)cc1 (relative stereo) [Example 61]	29 nM	–	–
c1ccc([C@H]2CN3CCC[C@H]3c3cc(OCCCN4CCCCC4)ccc32)nc1 (relative stereo) [Example 25]	0.8 nM	–	0.1 nM
Oc1ccc([C@@H]2CN3CCC[C@H]3c3cc(OCCCN4CCOCC4)ccc32)cn1 (relative stereo) [Example 51A, Cis-5-[9-(3-Morpholin-4-yl-propoxy)-1,2,3,5,6,10b-hexahydro-pyrrolo[2,1-a]isoquinolin-6-yl]-pyridin-2-ol]	3 nM	–	–
CSc1ccc([C@H]2CN3CCC[C@H]3c3ccc(C#CCCN4CCCCC4)cc32)cc1 (relative stereo) [Example 97B, Trans-6-(4-methylsulfanyl-phenyl)-8-(4-piperidin-1-yl-but-1-ynyl)-1,2,3,5,6,10b-hexahydro-pyrrolo[2,1-a]isoquinoline]	12 nM	10 nM	–
c1csc([C@H]2CN3CCC[C@H]3c3cc(OCCCN4CCOCC4)ccc32)n1 (relative stereo) [Example 53]	3 nM	–	–
CSc1ccc([C@@H]2CN3CCC[C@H]3c3cc(OCCCN4CCCCC4)ccc32)cc1 (relative stereo) [Example 39B, Trans-6-(4-Methylsulfanyl-phenyl)-9-(3-piperidin-1-yl-propoxy)-1,2,3,5,6,10b-hexahydro-pyrrolo[2,1-a]isoquinoline]	1 nM	–	–
c1cc([C@H]2CN3CCC[C@H]3c3cc(OCCCN4CCCCC4)ccc32)ccn1 (relative stereo) [Example 27B, Trans-9-(3-Piperidin-1-yl-propoxy)-6-pyridin-4-yl-1,2,3,5,6,10b-hexahydro-pyrrolo[2,1-a]isoquinoline]	0.3 nM	–	–
Clc1ccc([C@H]2CN3CCC[C@H]3c3cc(OCCCN4CCCCC4)ccc32)cc1Cl (relative stereo) [Example 6B, Trans-6-(3,4-Dichloro-phenyl)-9-(3-piperidin-1-yl-propoxy)-1,2,3,5,6,10b-hexahydro-pyrrolo[2,1-a]isoquinoline]	1 nM	–	–
Clc1ccccc1[C@@H]1CN2CCC[C@H]2c2cccc(OCCCN3CCCCC3)c21 (relative stereo) [Example 12C, Cis-6-(2-Chloro-phenyl)-7-(3-piperidin-1-yl-propoxy)-1,2,3,5,6,10b-hexahydro-pyrrolo[2,1-a]isoquinoline]	91 nM	–	–
c1cc([C@H]2CN3CCC[C@H]3c3cc(OCCCN4CCOCC4)ccc32)cs1 (relative stereo) [Example 56]	3 nM	–	–
Clc1ccc([C@H]2CN3CCC[C@H]3c3cc(OCCCN4CCCCC4)ccc32)cc1 (relative stereo) [Example 66B, Trans-6-(4-chloro-phenyl)-9-(3-piperidin-1-yl-propoxy)-1,2,3,5,6,10b-hexahydro-pyrrolo[2,1-a]isoquinoline]	1 nM	–	–
FC(F)(F)Sc1cccc([C@H]2CN3CCC[C@H]3c3cc(OCCCN4CCOCC4)ccc32)c1 (relative stereo) [Example 62]	6 nM	–	–
N#Cc1cccc([C@H]2CN3CCC[C@H]3c3cc(OCCCN4CCOCC4)ccc32)c1 (relative stereo) [Example 58]	2 nM	–	–
Fc1ccc([C@@H]2CN3CCC[C@H]3c3cccc(OCCCN4CCCCC4)c32)cc1 (relative stereo) [Example 14C]	200 nM	–	–
N#Cc1ccc([C@H]2CN3CCC[C@H]3c3ccc(OCCCN4CCCCC4)cc32)cc1 (relative stereo) [Example 43]	30 nM	–	–

Structure (SMILES)	Ki [1]	Kb ([2]; read-out: H3 pA2 (converted))	Kb [2]
Brc1ccc([C@H]2CN3CCC[C@H]3c3ccc(OCCCN4CCCCC4)cc32)cc1 (relative stereo) [Example 42, Trans-6-(4-Bromo-phenyl)-8-(3-piperidin-1-yl-propoxy)-1,2,3,5,6,10b-hexahydro-pyrrolo[2,1-a]isoquinoline]	2 nM	–	–
COc1ccc([C@H]2CN3CCC[C@H]3c3cc(OCCCN4CCOCC4)ccc32)cc1Cl (relative stereo) [Example 64]	3 nM	–	–
c1cn(-c2ccc([C@@H]3CN4CCC[C@H]4c4cc(OCCCN5CCOCC5)ccc43)cc2)cn1 (relative stereo) [Example 48A, Cis-6-(4-Imidazol-1-yl-phenyl)-9-(3-morpholin-4-yl-propoxy)-1,2,3,5,6,10b-hexahydro-pyrrolo[2,1-a]isoquinoline]	6 nM	–	–
COc1ccc([C@@H]2CN3CCC[C@H]3c3cc(OCCCN4CCOCC4)ccc32)cc1 (racemic) [Example 93]	5 nM	–	–
c1cncc([C@H]2CN3CCC[C@H]3c3cc(OCCCN4CCOCC4)ccc32)c1 (relative stereo) [Example 59]	2 nM	–	–
c1ccc([C@@H]2CN3CCC[C@H]3c3ccc(OCCCN4CCCCC4)cc32)cc1 (relative stereo) [Example 44]	1 nM	–	–
O=[N+]([O-])c1ccc([C@@H]2CN3CCC[C@H]3c3cccc(OCCCN4CCCCC4)c32)cc1 (relative stereo) [Example 2C, Trans-6-(4-Nitro-phenyl)-7-(3-piperidin-1-yl-propoxy)-1,2,3,5,6,10b-hexahydro-pyrrolo[2,1-a]isoquinoline]	29 nM	–	–
c1cnc([C@H]2CN3CCC[C@H]3c3cc(OCCCN4CCOCC4)ccc32)cn1 (relative stereo) [Example 50B, Trans-9-(3-Morpholin-4-yl-propoxy)-6-pyrazin-2-yl-1,2,3,5,6,10b-hexahydro-pyrrolo[2,1-a]isoquinoline]	181 nM	–	–
CSc1ccc([C@H]2CN3CCC[C@H]3c3cc(OCCCN4CCOCC4)ccc32)cc1 (relative stereo) [Example 63]	16 nM	–	–
COc1ccc([C@H]2CN3CCC[C@H]3c3cc(OCCCN4CCOCC4)ccc32)cc1F (relative stereo) [Example 65]	4 nM	–	–
c1ccc([C@H]2CN3CCC[C@H]3c3cc(OCCCN4CCOCC4)ccc32)nc1 (relative stereo) [Example 60]	3 nM	–	–
Oc1ccc([C@H]2CN3CCC[C@H]3c3cc(OCCCN4CCOCC4)ccc32)cn1 (relative stereo) [Example 51B, Trans-5-[9-(3-Morpholin-4-yl-propoxy)-1,2,3,5,6,10b-hexahydro-pyrrolo[2,1-a]isoquinolin-6-yl]-pyridin-2-ol]	5 nM	–	–
O=[N+]([O-])c1cccc([C@H]2CN3CCC[C@H]3c3cccc(OCCCN4CCCCC4)c32)c1 (relative stereo) [Example 4C, Cis-6-(3-Nitro-phenyl)-7-(3-piperidin-1-yl-propoxy)-1,2,3,5,6,10b-hexahydro-pyrrolo[2,1-a]isoquinoline]	98 nM	–	–
Cc1ccc([C@@H]2CN3CCC[C@H]3c3cccc(OCCCN4CCCCC4)c32)cc1 (relative stereo) [Example 5C, Trans-7-(3-Piperidine-1-yl-propoxy)-6-p-tolyl-1,2,3,5,6,10b-hexahydro-pyrrolo[2,1-a]isoquinoline]	85 nM	–	–
c1ccn2c([C@H]3CN4CCC[C@H]4c4cc(OCCCN5CCOCC5)ccc43)cnc2c1 (relative stereo) [Example 55]	2 nM	–	–
c1cnn(-c2ccc([C@H]3CN4CCC[C@H]4c4cc(OCCCN5CCOCC5)ccc43)cc2)c1 (relative stereo) [Example 49]	5 nM	–	–
c1cc([C@H]2CN3CCC[C@H]3c3cc(OCCCN4CCOCC4)ccc32)[nH]n1 (relative stereo) [Example 54]	4 nM	–	–
c1ncc([C@H]2CN3CCC[C@H]3c3cc(OCCCN4CCOCC4)ccc32)s1 (relative stereo) [Example 52]	4 nM	–	–
c1ccc([C@H]2CN3CCC[C@H]3c3ccc(OCCCN4CCCCC4)cc32)cc1 (relative stereo) [Example 45]	16 nM	–	–
Clc1ccc([C@H]2CN3CCC[C@H]3c3cccc(OCCCN4CCCCC4)c32)cc1Cl (relative stereo) [Example 6C]	76 nM	–	–
c1cn(-c2ccc([C@H]3CN4CCC[C@H]4c4cc(OCCCN5CCOCC5)ccc43)cc2)cn1 (relative stereo) [Example 48B, Trans-6-(4-Imidazol-1-yl-phenyl)-9-(3-morpholin-4-yl-propoxy)-1,2,3,5,6,10b-hexahydro-pyrrolo[2,1-a]isoquinoline]	5 nM	–	–

— patent US8273762B2, “Hexahydro-pyrrolo-isoquinoline compounds” (Janssen Pharmaceutica NV, priority 2005, dated 2012)
